Experiment: Human HepG2 cell viability assay in 384 well format
Format: toxicity, cell-based
Set-up: dose 125 nL, time 70.5 hour; cytotoxicity at 70.5 h: concentration not given beside the values
Conditions: HepG2 cells, read-out: Inhibition

SMILES	cytotoxicity at 70.5 h
Cc1cc(C(=O)N2CCCC(n3cncn3)C2)on1 (stereo not drawn)	26.7%
c1cncc(CNC2CCc3ncnn3C2)c1 (stereo not drawn)	34.5%
c1cnn(CC2CN(CC3CCCCC3)CCO2)c1 (stereo not drawn)	-0.377%
CC(=O)N(Cc1noc(C)n1)C1CCN(Cc2ccc(C#N)cc2)C1 (stereo not drawn)	30.3%
Cc1ccc(CNCC2CCCN2c2cccnn2)s1 (stereo not drawn)	4.46%
c1cnnc(N2CCCC2CNCc2cccs2)c1 (stereo not drawn)	-1.72%
CCc1nc2n(n1)CC(NCc1cnn(Cc3ccccc3)c1)CC2 (stereo not drawn)	-5.29%
CC(NCc1nnc2n1CCCC2)C(=O)N1CCc2sccc2C1 (stereo not drawn)	-2.4%
CC(NC(=O)NCc1ccccc1Cl)c1ccccn1 (stereo not drawn)	19.4%
CC(NC(=O)Cn1ccc(=O)n(C)c1=O)c1ccccc1F (stereo not drawn)	-5.75%
O=C(NCc1ccccn1)NCc1ccc(Cl)s1	20.5%
COc1c(CNCc2ccc(CS(C)(=O)=O)cc2)c(C)nn1C	26.4%
COc1c(CNCc2ccc(C(=O)N(C)C(C)C)cc2)c(C)nn1C	34.2%
O=C(CCN1CCOC(Cn2cccn2)C1)NC1CCCCC1 (stereo not drawn)	-0.965%
Cc1cn2nc(N3CCCC3Cn3cccn3)sc2n1 (stereo not drawn)	-4.17%
Cc1nccn1C1CCCN(C(=O)Cc2cn3ccccc3n2)C1 (stereo not drawn)	16.9%
CC(C)c1cc(C(=O)N2CCCC(n3cncn3)C2)n[nH]1 (stereo not drawn)	6.33%
Cc1nnc(CN2CCN(C(C)c3nc(C4CC4)no3)CC2)o1 (stereo not drawn)	-1.41%
Cn1ccnc1CN1CCCC1Cn1cccn1 (stereo not drawn)	-1.33%
CCn1ccnc1CN1CCCN(C(=O)Cc2csc(C)n2)CC1	-5.98%
COc1cccc(CN2CCCCC2Cn2nc(C)nc2C)c1 (stereo not drawn)	-9.6%
CN(C)c1ccc(C(=O)NCc2csc(Br)c2)cn1	-11%
CCN(CC)CC1CCN(Cc2ccn(C)c(=O)c2)CC1	-4.81%
O=C(CSCc1ccncc1)NCc1csc(Br)c1	-8.77%

SMILES	cytotoxicity at 70.5 h
Cc1oc(C)c(C(=O)NCc2cccc(C(N)=O)c2)c1C	-4.54%
Cc1ccc(-n2cc(C(=O)N3CCCC(n4cccn4)C3)nn2)cc1 (stereo not drawn)	-5.27%
O=C(CN1CCc2c(ncn2C2CC2)C1)NC1CCOCC1	-10.3%
Cc1nc(CN2CCN(C(C)c3nc(C4CC4)no3)CC2)no1 (stereo not drawn)	-4.1%
CC(C)(CNC(=O)NCCc1ccn(-c2ccccc2)n1)C(N)=O	-6.77%
O=C(CCCOc1cccc(F)c1)N1CCCC(n2cncn2)C1 (stereo not drawn)	1.02%
CCn1ccnc1CN1CCCC1Cn1cc(C)cn1 (stereo not drawn)	4.18%
O=C(CCCOc1cccc(F)c1)N1CCCC(n2cccn2)C1 (stereo not drawn)	-5.07%
Cc1noc(C)c1CN1CCN(C(C)c2nc(C3CC3)no2)CC1 (stereo not drawn)	-3.54%
CC(C)c1nnc(CN2CCN(C(C)c3nc(C4CC4)no3)CC2)o1 (stereo not drawn)	-3.84%
CCn1ccnc1CN1CCCN(C(=O)Cc2ccc(C)cc2)CC1	-1.67%
Cc1ccc(N2CCCC(NCc3ccc(Cl)o3)C2)nn1 (stereo not drawn)	-1.97%
CN(Cc1ccc(-n2ccnc2)cc1)CC1CCCN1c1cccnn1 (stereo not drawn)	23%
Cc1nc(CN2CCN(C(=O)c3sccc3C3CC3)CC2)oc1C	12.6%
Cc1cc(C)n(CC2CCCN2C(=O)c2nccc3ccccc23)n1 (stereo not drawn)	-0.984%
CCCn1[nH]cc/c1=N\C(=O)CN1CCc2c(nc(C3CC3)n2C)C1	-9.16%
Cc1cnn(CC2CCCN2C(=O)c2cc3ccccc3c(=O)[nH]2)c1 (stereo not drawn)	-12.3%
CC(Cn1cccn1)NC(=O)NCc1ccc(C(N)=O)cc1 (stereo not drawn)	-15.4%
Cc1cc(CN2CCN(C(=O)c3sccc3C3CC3)CC2)no1	-7.26%
Cc1ccc(C(=O)NC2CCN(C(=O)Nc3ccncc3)CC2)o1	-13.5%
CCn1ccnc1CN1CCN(CC(O)c2cccc(F)c2)CC1 (stereo not drawn)	-5.97%
Cc1cnn(CC2CN(Cc3nc4ccccc4o3)CCO2)c1 (stereo not drawn)	-12.1%
Cc1cnn(CC2CN(Cc3nc(C)c4ccccc4n3)CCO2)c1 (stereo not drawn)	-7.25%
CC(C)c1nc2c(n1C)CCN(CC(=O)Nc1cccnc1)C2	-9.65%

SMILES	cytotoxicity at 70.5 h
Cc1ccc(C(O)CN2CCN(Cc3nccn3C)CC2)cc1C (stereo not drawn)	2%
CC(C)Oc1ccc(C(=O)N2CCC(Nc3cccnn3)CC2)cn1	-5.88%
O=C(c1ccc(NC2CC2)nc1)N1CCC(Nc2cccnn2)CC1	-8.71%
Cc1cnn(CC2CCCCN2C(=O)c2nccnc2N)c1 (stereo not drawn)	-4.52%
CC(C)c1nc2c(n1C)CCN(CC(=O)Nc1ccncc1)C2	-7.84%
O=C(c1ccccc1-n1cccn1)N1CCC(Nc2cccnn2)CC1	-8.8%
O=C(CCc1c(F)cccc1F)N1CCCCC1Cn1cccn1 (stereo not drawn)	1.38%
O=C(CCc1ccccc1)N1CCCCC1Cn1cccn1 (stereo not drawn)	11.8%
O=C(CCc1ccc2c(c1)OCO2)N1CCCCC1Cn1cccn1 (stereo not drawn)	-8.55%
Cc1cc(N2CCC(NC(=O)C3CC3)CC2)nc(-c2ccncc2)n1	-5.8%
Cc1cc(N2CCC(CC(N)=O)CC2)nc(-c2ccncc2)n1	-6.56%
COc1ccc(C(C)NC(=O)Cn2ccc(=O)n(C)c2=O)cc1OC (stereo not drawn)	-6.92%
Cc1ccc(OCC(O)CN2CCC(Cn3cccn3)CC2)cc1 (stereo not drawn)	-1.48%
CC(C)c1cc(NC(=O)CN2CCC(N3CCNC3=O)CC2)on1	-3.58%
Clc1ccc(OCCCN2CCN(c3cnccn3)CC2)cc1	-6.78%
CCc1nc(C)c(C(=O)NCCN2CCN(C(C)=O)CC2)s1	-7.15%
NC(=O)C1CCC(NC(=O)COc2ccc(Cl)c(Cl)c2)CC1 (stereo not drawn)	2.5%
Cc1cnn(CC2CCCCN2C(=O)c2cc(Cl)c[nH]2)c1 (stereo not drawn)	7.01%
COc1c(C2CCCN2C(=O)c2c[nH]c3ncccc23)c(C)nn1C (stereo not drawn)	-5.62%
COc1ccccc1OCC(=O)NS(=O)(=O)c1ccccc1Br	0.476%
CCc1nc(C)c(C(=O)NCCN2CCC(C)CC2)s1	0.72%
Cc1cc(N2CCC(Cc3ccccc3)CC2)nc(-c2ccncc2)n1	-10.7%
CCN(Cc1cccc2c1OCO2)C(=O)Nc1ccncc1	5.81%
O=S(=O)(CCNC1CCc2ncnn2C1)c1ccccc1 (stereo not drawn)	-2.34%

SMILES	cytotoxicity at 70.5 h
Cc1cc(C(=O)NCC(C)N2CCc3ccccc32)no1 (stereo not drawn)	15.4%
Cc1cc(CN2CCN(C(C)c3nc(C4CC4)no3)CC2)no1 (stereo not drawn)	-4.52%
O=C(COCC1CC1)N1CCCC(n2cccn2)C1 (stereo not drawn)	2.78%
CC(NC(=O)N(C)Cc1ccc(Cl)s1)c1ccccn1 (stereo not drawn)	1.2%
CNS(=O)(=O)c1cccc(CNC(=O)c2c(C)oc(C)c2C)c1	22.6%
O=C(NCc1nnc2n1CCCC2)N1CCc2ccccc2C1	-2.97%
O=C(CCNc1ncccn1)NCCc1ccn(-c2ccccc2)n1	22%
CC(C)c1nnc(NC(=O)NCc2ccc(CO)c(F)c2)s1	-13.4%
COCCNC(=O)NCCc1ccn(-c2ccccc2)n1	-10.9%
COc1ccc(CN2CCCC2Cn2nc(C)nc2C)cc1F (stereo not drawn)	-18.3%
NC(=O)c1csc(C(=O)N2CCCC(n3ccnc3)C2)c1 (stereo not drawn)	-8.21%
Cn1ccnc1CN1CCCCC1Cn1cccn1 (stereo not drawn)	11%
Cc1cnn(CC2CCCN2C(=O)c2ccc3cc[nH]c3c2)c1 (stereo not drawn)	0.784%
Cc1noc(C)c1CNc1cc(N2CCCC2CO)ncn1 (stereo not drawn)	-5.89%
O=C(CCOc1cccc(F)c1)N1CCCC(n2cncn2)C1 (stereo not drawn)	-6.87%
c1ccc(-c2ncc(CNC3CCc4ncnn4C3)cn2)cc1 (stereo not drawn)	-11%
CC(C)Cc1cc(C(=O)N2CCCC(n3cncn3)C2)[nH]n1 (stereo not drawn)	-7.4%
Cc1csc(C2CCCCN2C(=O)CN(C)C2CC2)n1 (stereo not drawn)	-8.97%
Cc1cnn(CC2CCCCN2Cc2nnc(C3CC3)n2C)c1 (stereo not drawn)	-6.92%
CCOC1CCCN(C(=O)NCCc2ccn(-c3ccccc3)n2)C1 (stereo not drawn)	9.56%
Cc1cnc(CN(C)CC2CCCN2c2cccnn2)cn1 (stereo not drawn)	14.1%
CCn1cc(NC(=O)NCC(O)CN2CCc3ccccc3C2)cn1 (stereo not drawn)	11.8%
CC(=O)Nc1nc(CN2CCCC2Cn2cc(C)cn2)cs1 (stereo not drawn)	30.3%
CC(=O)Nc1nc(CN2CCOC(Cn3cc(C)cn3)C2)cs1 (stereo not drawn)	-7.56%

SMILES	cytotoxicity at 70.5 h
O=C(NCCc1ccn(-c2ccccc2)n1)N1CCC1	-2.97%
Cn1ccnc1CN1CCN(CC(O)c2cccc(F)c2)CC1 (stereo not drawn)	-12.2%
CCN1CC(C(=O)NCc2ccccc2-n2cccn2)CC1=O (stereo not drawn)	-10.2%
CCN(Cc1cccc(Cl)c1)Cc1nc2c(cnn2C)c(=O)[nH]1	-7.7%
CC(C)c1nc2c(n1C)CCN(CC(=O)Nc1nccs1)C2	-24.8%
Cc1ccc(NC(=O)N2CCC(NC(=O)c3ccc(C)o3)CC2)cc1	-11.5%
CS(=O)(=O)N1CCN(CC(O)COc2ccc(F)cc2)CC1 (stereo not drawn)	-11.1%
O=C(c1cc(F)ccc1F)C1CCN(C(=O)c2ccc(=O)[nH]n2)CC1	-9.24%
CCN1CCN(C2CCN(Cc3nnc(C(C)(C)C)o3)CC2)C1=O	-11.1%
Cc1cnn(CC2CCCN2C(=O)c2cc3ccccc3[nH]c2=O)c1 (stereo not drawn)	8.93%
CC(=O)Nc1nc(C(=O)N2CCCC2Cn2cc(C)cn2)cs1 (stereo not drawn)	-10.5%
Cc1cnn(CC2CCCCN2C(=O)c2ccc3[nH]nnc3c2)c1 (stereo not drawn)	-11.6%
Cc1nnc(CN2CCN(CC(O)c3cccc(F)c3)CC2)n1C (stereo not drawn)	-15.6%
CCc1nc(C2CCCN(C(=O)c3ccc4c(c3)nnn4C)C2)no1 (stereo not drawn)	-7.83%
CCc1n[nH]c(C2CN(C(=O)c3cnc[nH]3)CCO2)n1 (stereo not drawn)	-15.6%
O=C(c1cc(F)ccc1F)C1CCN(C(=O)c2cccnc2O)CC1	-16.4%
O=C(NCCn1ccnc1)NCC(c1ccco1)N1CCCCC1 (stereo not drawn)	-9.78%
CC1(C)CN(C(=O)NCCc2ccn(-c3ccccc3)n2)CCO1	-12.4%
COc1cccc(CCC(=O)N2CCCCC2Cn2cccn2)c1 (stereo not drawn)	-11.2%
CCn1ccnc1CN1CCCN(C(=O)Cc2ccc(C)nc2)CC1	-14.5%
CCn1ccnc1CN1CCCN(C(=O)Cn2nc(C)cc2C)CC1	-19.3%
Cc1nc(CN2CCOC(Cn3cncn3)C2)nc2ccccc12 (stereo not drawn)	-16.8%

From ChEMBL document CHEMBL3507680, “University of Dundee, Gates Library screen for HepG2 cell viability”
